According to patent publication US20150374649A1, “Treatment of Severe Hypertriglyceridemia” (CymaBay Therapeutics, Inc, priority 2014, published 2015):

Assays:
[1] = system: dyslipidemic overweight patients (mixed dyslipidemia); settings: cited from earlier work
[2] = system: adult subjects with severe hypertriglyceridemia; assay: 12-week open label dose-escalation study in severe hypertriglyceridemia; type: in vivo, human
Method: The study is a 12-week interventional, open label (single blind), dose-escalation study using adult subjects (for example 30, preferably with at least one-fourth the number having Type I hyperlipoproteinemia and at least one-fourth the number having Type V hyperlipoproteinemia) with severe hypertriglyceridemia (fasting TG levels of at least 1000 mg/dL), on stable therapy (fibrates, niacin, O3FA) or refractory to such therapy. Exclusion criteria include stage 3 or 4 heart failure, uncontrolled diabetes mellitus in the month before screening, use of corticosteroids in the month before screening, estrogen treatments (contraceptive or hormone replacement) unless on a stable dose in the two months before screening, a history of pancreatic disease during the six months before screening, and current apheresis treatments. Subjects are assessed for fasting TGs and other lipids at baseline.

PPARα = target: T1, PPARα (Homo sapiens, UniProt Q07869); assay: Specificity for PPARδ compared with PPARα; type: biochemical; settings: PPARδ versus PPARα
T1 sequence (Q07869 1-468): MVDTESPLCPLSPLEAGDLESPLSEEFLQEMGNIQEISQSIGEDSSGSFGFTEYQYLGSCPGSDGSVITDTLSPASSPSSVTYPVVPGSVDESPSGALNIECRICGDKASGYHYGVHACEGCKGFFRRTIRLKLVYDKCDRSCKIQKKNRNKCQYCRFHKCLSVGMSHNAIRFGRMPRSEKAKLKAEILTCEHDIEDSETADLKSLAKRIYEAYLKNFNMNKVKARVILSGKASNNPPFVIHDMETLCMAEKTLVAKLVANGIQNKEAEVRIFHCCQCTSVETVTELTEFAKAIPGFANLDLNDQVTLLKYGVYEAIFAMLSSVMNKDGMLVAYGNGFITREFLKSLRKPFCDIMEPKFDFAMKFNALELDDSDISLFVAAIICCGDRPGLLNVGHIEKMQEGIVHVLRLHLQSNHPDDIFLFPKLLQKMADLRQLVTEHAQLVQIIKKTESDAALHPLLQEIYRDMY

[3] = system: hypertriglyceridemia patients; settings: cited from earlier work

| specificity compared with PPARα (PPARα) | SMILES | reduction of TGs over the total population treated ([1]; 50 mg/day and 100 mg/day) | reduction of TGs ([1]; compared to placebo, 50 or 100 mg once daily alone and in combination with ATV 20 mg, 8 weeks, P<0.05) | insulin sensitivity ([1]; homeostatic model assessment-insulin resistance, fasting plasma glucose, insulin lowered) | GGT and ALP ([1]; in vivo) | effect on small dense LDL particles ([1]; in vivo) | liver enzyme levels ([1]; in vivo) | percentage reduction in TGs, tertile with lowest starting TG levels ([1]; starting TG 125-155 mg/dL) | percentage reduction in TGs, tertile with highest starting TG levels ([1]; starting TG 279-324 mg/dL) | fasting TGs versus baseline ([2]; 50, 100, 200 mg/day orally, four weeks each, reduction increasing with dose) | percentage of subjects at risk of acute pancreatitis and associated adverse events ([2]; subjects with SHTG) | decrease of TG levels ([3]; high-dose niacin (at least 1500 mg/day)) | raise of HDL-C levels ([3]; human, in vivo) |
| --- | --- | --- | --- | --- | --- | --- | --- | --- | --- | --- | --- | --- | --- |
| > 600 fold | CCO[C@H](COc1ccc(C(F)(F)F)cc1)CSc1ccc(OCC(=O)O)c(C)c1 [MBX-8025, (R)-2-(4-((2-ethoxy-3-(4-(trifluoromethyl)phenoxy)propyl)thio)-2-methylphenoxy)acetic acid] | 32% | 26-30% | increases insulin sensitivity | lowers GGT and ALP | selectively depletes small dense LDL particles | reduced liver enzyme levels | near zero | over 40% | reduction in fasting TGs from baseline | significantly reduce |  |  |
|  | O=C(O)c1cccnc1 [niacin, pyridine-3-carboxylic acid] |  |  |  |  |  |  |  |  |  |  | at least 40% | at least 40% |
